Type in all cases: physicochemical
Data set [1] in a line: Photophysical measurements of terbium complexes in 1x PBS pH 7.4. The following applies: for τPBS (fluorescence lifetime): 1x PBS pH 7.4; for Emission λmax: 1x PBS pH 7.4, 4 uM; for εmax / λmax, Abs: 1x PBS pH 7.4, 20 uM. As for the experimental part:
(§1) Photophysical measurements: UV/visible and emission spectra were recorded on a Horiba Scientific Dual FL spectrophotometer. Ligands loaded with terbium were diluted into 1×PBS (pH 7.4) to a concentration of 20 uM (for absorbance) or 4 uM (for emission). For emission spectra, the data were normalized to the highest fluorescence signal. The fluorescence lifetime was determined by plotting the ln of the signal decay over time then solving for r in Equation 1:
(§2) [formula] where It is the intensity at time t, α is a normalization term (the preexponential factor) and τ is the lifetime.

Data set [2] can be described thus: Stability of Tb complexes (10 nM) in various buffers over 7 days. The following applies: buffers with 0.05% TWEEN-20. As for the experimental part:
The stability of NCP190-Tb (10 nM) was measured over the course of 7 days in various different buffers. All buffers contained 0.05% TWEEN-20 detergent.
The stability of NCP134-Tb (10 nM) was measured over the course of 7 days in various different buffers. All buffers contained 0.05% TWEEN-20 detergent.

A short description of data set [3]: Fluorescence lifetimes of selected lanthanide (Tb, Eu, Dy, Sm) complexes. As to conditions: Table 1. As for the experimental part:
as §1, §2

Experiment in data set [4]: as above
[5] abbreviates: Dy and Sm complexes of NCP189, Table 3.

`O=C1NCCN2CCNC(=O)c3cccc(c3O)C(=O)NCCN(CCNC(=O)c3cccc1c3O)CCN1CCNC(=O)c3cccc(c3O)C(=O)NCCN(CCNC(=O)c3cccc(c3O)C(=O)NCC1)CC2` [NCP 134-Tb]: in data set [1], the “τPBS (fluorescence lifetime)” value came to 2.10 ms; the “Emission λmax” value was 545 nm; the εmax was 11,600 M^−1cm^−1; the “λmax, Abs” value worked out at 340 nm. Besides, the “Stability in various buffers” value in data set [2] is listed as “only significantly destabilized by EDTA, however to a greater extent relative to NCP190-Tb”. Further, the “Life Time” value in data set [3] was found to be 2.56 ms.
Take `O=C(O)CN1CCN2CCNC(=O)c3cccc(c3O)C(=O)NCCN(CCNC(=O)c3cccc(c3O)C1=O)CCN1CCNC(=O)c3cccc(c3O)C(=O)NCCN(CCNC(=O)c3cccc(c3O)C(=O)NCC1)CC2` [NCP 144-Tb]: in data set [1], the “τPBS (fluorescence lifetime)” value turned out to be 2.06 ms; the “Emission λmax” value came out at 545 nm; the εmax was 19,230 M^−1cm^−1; the “λmax, Abs” value came to 340 nm. In addition, the “Life Time” value in data set [3] turned out to be 2.06 ms.
`O=C1NCCN2CCNC(=O)c3cc(Br)cc(c3O)C(=O)NCCN(CCNC(=O)c3cc(Br)cc1c3O)CCN1CCNC(=O)c3cc(Br)cc(c3O)C(=O)NCCN(CCNC(=O)c3cc(Br)cc(c3O)C(=O)NCC1)CC2` [NCP 158-Tb]: in data set [1], the “τPBS (fluorescence lifetime)” value turned out to be 0.97 ms; the “Emission λmax” value came out at 545 nm; the εmax is reported as 13,750 M^−1cm^−1; the “λmax, Abs” value is 355 nm. Besides, the “Life Time” value in data set [3] amounted to 0.97 ms.
As to `O=C(CN1CCN2CCNC(=O)c3cccc(c3O)C(=O)NCCN(CCNC(=O)c3cccc(c3O)C1=O)CCN1CCNC(=O)c3cccc(c3O)C(=O)NCCN(CCNC(=O)c3cccc(c3O)C(=O)NCC1)CC2)NCCOCCOCCCCCCCl` [NCP 166-Tb], the “Life Time” value in data set [3] came to 2.23 ms.
`Nc1nc(CCc2ccc(CNC(=O)CN3CCN4CCNC(=O)c5cccc(c5O)C(=O)NCCN(CCNC(=O)c5cccc(c5O)C3=O)CCN3CCNC(=O)c5cccc(c5O)C(=O)NCCN(CCNC(=O)c5cccc(c5O)C(=O)NCC3)CC4)cc2)c2[nH]cnc2n1` [NCP 169-Tb]: the “Life Time” value in data set [3] came out at 1.99 ms.
For the molecule `O=C(O)CCCCCN1CCN2CCNC(=O)c3cccc(c3O)C(=O)NCCN(CCNC(=O)c3cccc(c3O)C1=O)CCN1CCNC(=O)c3cccc(c3O)C(=O)NCCN(CCNC(=O)c3cccc(c3O)C(=O)NCC1)CC2` [NCP 189-Dy], the “Life Time” value in data set [4] (setting [5]) is 22.7 ms.
For the molecule `O=C(O)CCCCCN1CCN2CCNC(=O)c3cccc(c3O)C(=O)NCCN(CCNC(=O)c3cccc(c3O)C1=O)CCN1CCNC(=O)c3cccc(c3O)C(=O)NCCN(CCNC(=O)c3cccc(c3O)C(=O)NCC1)CC2` [NCP 189-Eu], the Life Time in data set [4] (Eu complexes, Table 2) was found to be 598 µs.
For the molecule `O=C(O)CCCCCN1CCN2CCNC(=O)c3cccc(c3O)C(=O)NCCN(CCNC(=O)c3cccc(c3O)C1=O)CCN1CCNC(=O)c3cccc(c3O)C(=O)NCCN(CCNC(=O)c3cccc(c3O)C(=O)NCC1)CC2` [NCP 189-Sm], the “Life Time” value in data set [4] (setting [5]) worked out at 28.1 ms.
On to `O=C(O)CCCCCN1CCN2CCNC(=O)c3cccc(c3O)C(=O)NCCN(CCNC(=O)c3cccc(c3O)C1=O)CCN1CCNC(=O)c3cccc(c3O)C(=O)NCCN(CCNC(=O)c3cccc(c3O)C(=O)NCC1)CC2` [NCP 189-Tb], for which the “Life Time” value in data set [3] came to 1.79 ms.
As for `O=C(CCCCCN1CCN2CCNC(=O)c3cccc(c3O)C(=O)NCCN(CCNC(=O)c3cccc(c3O)C1=O)CCN1CCNC(=O)c3cccc(c3O)C(=O)NCCN(CCNC(=O)c3cccc(c3O)C(=O)NCC1)CC2)NCCOCCOCCCCCCCl` [NCP 190-Tb], in data set [2], the “Stability in various buffers” value is “only significantly destabilized by EDTA”. Moreover, in data set [3], the “Life Time” value is given as 2.46 ms.
For the molecule `Nc1nc(CCc2ccc(CNC(=O)CCCCCN3CCN4CCNC(=O)c5cccc(c5O)C(=O)NCCN(CCNC(=O)c5cccc(c5O)C3=O)CCN3CCNC(=O)c5cccc(c5O)C(=O)NCCN(CCNC(=O)c5cccc(c5O)C(=O)NCC3)CC4)cc2)c2nc[nH]c2n1` [NCP 191-Tb], the “Life Time” value in data set [3] stood at 2.11 ms.
As to `O=C(O)CCCCCN1CCN2CCNC(=O)c3cccc(c3O)C(=O)NCCN(CCNC(=O)c3cccc(n3)C1=O)CCN1CCNC(=O)c3cccc(c3O)C(=O)NCCN(CCNC(=O)c3cccc(c3O)C(=O)NCC1)CC2` [NCP 227-Eu], the Life Time in data set [4] (Eu complexes, Table 2) worked out at 651 µs.
For `O=C(O)CCCCCN1CCN2CCNC(=O)c3cccc(c3O)C(=O)NCCN(CCNC(=O)c3cccc(n3)C1=O)CCN1CCNC(=O)c3cccc(c3O)C(=O)NCCN(CCNC(=O)c3cccc(c3O)C(=O)NCC1)CC2` [NCP 227-Tb], the “Life Time” value in data set [3] is recorded as 1.20 ms.
As for `O=C(O)CCCCCN1CCN2CCNC(=O)c3cccc(c3O)C(=O)NCCN(CCNC(=O)c3cccc(c3)C1=O)CCN1CCNC(=O)c3cccc(c3O)C(=O)NCCN(CCNC(=O)c3cccc(c3O)C(=O)NCC1)CC2` [NCP 259-Eu], in data set [4] (Eu complexes, Table 2), the Life Time worked out at 657 µs.
Regarding `O=C(O)CCCCCN1CCN2CCNC(=O)c3cccc(c3O)C(=O)NCCN(CCNC(=O)c3cccc(c3)C1=O)CCN1CCNC(=O)c3cccc(c3O)C(=O)NCCN(CCNC(=O)c3cccc(c3O)C(=O)NCC1)CC2` [NCP 259-Tb], in data set [3], the “Life Time” value was 1.37 ms.
With `O=C1NCCN2CCNC(=O)c3cccc(c3O)C(=O)NCCN(CCNC(=O)c3cccc1c3O)CC(=O)N1CCNC(=O)c3cccc(c3O)C(=O)NCCN(CCNC(=O)c3cccc(c3O)C(=O)NCC1)CC2` [NCP 272-Eu], in data set [4] (Eu complexes, Table 2), the Life Time stood at 609 µs.
On to `O=C1NCCN2CCNC(=O)c3cccc(c3O)C(=O)NCCN(CCNC(=O)c3cccc1c3O)CC(=O)N1CCNC(=O)c3cccc(c3O)C(=O)NCCN(CCNC(=O)c3cccc(c3O)C(=O)NCC1)CC2` [NCP 272-Tb], for which the “Life Time” value in data set [3] worked out at 1.53 ms.
Regarding `O=C1NCCN2CCNC(=O)c3cccc(c3O)C(=O)NCCN(CCNC(=O)c3cccc1c3O)C(=O)N1CCNC(=O)c3cccc(c3O)C(=O)NCCN(CCNC(=O)c3cccc(c3O)C(=O)NCC1)CC2` [NCP 275-Eu], in data set [4] (Eu complexes, Table 2), the “Life Time” value is 505 ms.
On to `O=C1NCCN2CCNC(=O)c3cccc(c3O)C(=O)NCCN(CCNC(=O)c3cccc1c3O)C(=O)N1CCNC(=O)c3cccc(c3O)C(=O)NCCN(CCNC(=O)c3cccc(c3O)C(=O)NCC1)CC2` [NCP 275-Tb], for which the “Life Time” value in data set [3] amounted to 1.39 ms.
“BH(2,2)IAM-N-carboxymethyl-Halotag [NCP166]”: in data set [1], the “τPBS (fluorescence lifetime)” value was found to be 2.23 ms; the “Emission λmax” value is on record as 545 nm; the εmax was 10,800 M^−1cm^−1; the “λmax, Abs” value worked out at 340 nm.

Values taken from patent publication US12134721B2, “Complexes and ligands” (The General Hospital Corporation, priority 2018, dated 2024).
